Read-outs that look alike come from different tables or passages of the source. Bounds are passed on as bounds.

In general, IC50 refers to the concentration needed to halve the response being measured.

The test system of data set [1] is human CLL, PLL, T cell lymphoma, esophageal and pancreatic cancer and multiple myeloma cells. Particulars: in vitro; cited from earlier work.
Data set [2] has as its system NKL (Natural killer cell lymphoblastic leukemia/lymphoma). The experiment in a line: Cell viability assay ([…]-GLO). In kind it is cell-based. Particulars: Homo sapiens, 60 h, read-out: IC50 in nM at 60 Hours. The text has this:
(§1) Cell lines. The T cell lymphoma cell lines HH and H9 (both Cutaneous T Cell Lymphomas; CTCL), SUP-T1 (T Cell Lymphoblastic Lymphoma) and FEPD and SUP-M2 (ALK-negative anaplastic large cell lymphoma; ALCL), were obtained from ATCC. NKL (Natural killer cell lymphoblastic leukemia/lymphoma) cell lines (Robertson et al., 1996) were also employed. The cutaneous melanoma cell line FM3-29 was obtained from DSMZ. The Large Granular Lymphocyte (LGL) leukemia cell line TL-1 was generated in the Loughran lab. All cells were grown at 37° C. and 5% CO2 in a humidified incubator. Cell lines were authenticated by short tandem repeat DNA profiling (Genetica DNA laboratories) and tested for mycoplasma contamination routinely using the MycoAlert PLUS detection kit (Lonza #LT07-710). Experiments were performed within 6 weeks of thawing. HH, H9, SUP-T1, FEPD and FM3-29 cells were cultured in RPMI-1640 (Corning, Glendale, AZ) with 10% FBS (Thermofisher Scientific, Waltham, MA). SUP-M2 cells were cultured in RPMI-1640 with 20% FBS. TL-1 cells were cultured in RPMI-1640 with 10% FBS and supplemented with 200 U/ml IL-2 (Miltenyi Biotec cat #130-097-743). NKL cells were cultured in RPMI-1640 with 10% FBS and supplemented with 100 U/ml IL-2.
(§2) Cell Viability Assay. For cell viability, cell lines were plated at the appropriate cell densities (SUP-T1, HH, NKL and TL-1 at 100,000 cells/ml/well and H9, FEPD SUP-M2 and FM3-29 at 50,000 cells/ml/well) in a 48-well plate. […] Cells were harvested after 24, 60, and 96 hours of incubation at 37° C., 5% CO2 and assayed for cell viability, using […]-GLO® (Promega) luminescence reagent, by quantifying the amount of ATP present. After 15 minutes of adding […]-GLO® reagent at a 1:1 ratio, luminescence was read on a GLOMAX® Discover Microplate Reader (Promega). Luminescence was normalized to untreated control, which was defined as 100% viability.

The subject of another data set is HH (CTCL). The experiment in a line: Cell viability assay ([…]-GLO). Particulars: Homo sapiens, 60 h, read-out: IC50 in nM at 60 Hours. In kind it is cell-based.
From the text: as §1, §2

The subject of another data set is FEPD (ALCL). The experiment in a line: Cell viability assay ([…]-GLO). In kind it is cell-based. Particulars: Homo sapiens, 60 h, read-out: IC50 in nM at 60 Hours.
From the text: as §1, §2

The test system of data set [3] is SUP-T1 (T Cell Lymphoblastic Lymphoma). The experiment in a line: Cell viability assay ([…]-GLO). In kind it is cell-based. Particulars: Homo sapiens, SUP-T1, 60 h, read-out: IC50 in nM at 60 Hours.
From the text: as §1, §2

A further data set has as its system SUP-M2 (ALK-ALCL). The experiment in a line: Cell viability assay ([…]-GLO). In kind it is cell-based. Particulars: Homo sapiens, SUP-M2, 60 h, read-out: IC50 in nM at 60 Hours.
From the text: as §1, §2

For data set [4], the system named is cancer cell lines (SUP-T1, FEPD, H9, HH, SUP-M2, NKL, TL-1, FM3-29). Description: Cell viability assay, summary across all cancer cell lines tested. In kind it is cell-based, human. As to the method:
Cell Viability Assay. For cell viability, cell lines were plated at the appropriate cell densities (SUP-T1, HH, NKL and TL-1 at 100,000 cells/ml/well and H9, FEPD SUP-M2 and FM3-29 at 50,000 cells/ml/well) in a 48-well plate. […] Luminescence was normalized to untreated control, which was defined as 100% viability.

A further data set relates to BALB/c mice. The experiment in a line: Single dose toxicity study (MTD). In kind it is in vivo. The procedure:
(§3) In vivo studies. For single dose toxicity study, five to seven-week old female BALB/c mice were chosen for the MTD study. Animals were randomly assigned to dose groups based on body weight. […] Mice were divided into two cohorts for Nano-romidepsin (NanoRomi) and free romidepsin. Each cohort was divided into sub-cohorts. Each sub cohort (n=5) received a single treatment of following doses: 1, 2, 3, 5, and 8 mg/kg body weight by intreaperitoneal (IP) and intravenous (IV) route of administration. NanoRomi was diluted under sterile conditions in phosphate buffered saline (PBS). Romidepsin was prepared in DMSO and then diluted with PBS under sterile condition. […] The mice were monitored for 7 days after the last treatment. For single dose and repeated dose toxicity study, we used two endpoints: weight loss and clinical score. Clinical signs were scored by observing activity, appearance (hair coat and eyes/nose), posture, and body condition with a maximum of 3 points going to each (0, normal; 1 slight deviation from normal; 2, moderate deviation from normal, 3, severe deviation from normal). Euthanasia criteria included weight loss either >20% weight loss or reached a clinical score >6.

Data set [5] can be described thus: Single dose toxicity study (MTD). The following applies: female, mouse, in vivo, BALB/c mice. In kind it is in vivo, mice. The procedure: as §3

As for `C/C=C1\NC(=O)[C@H]2CSSCC/C=C/[C@H](CC(=O)N[C@H](C(C)C)C(=O)N2)OC(=O)[C@H](C(C)C)NC1=O` [Romidepsin, (1S,4S,7Z,10S,16E,21R)-7-Ethylidene-4,21-diisopropyl-2-oxa-12,13-dithia-5,8,20,23-tetrazabicyclo[8.7.6]tricos-16-ene-3,6,9,19,22-pentone], the “concentrations at which anti-proliferative and pro-apoptotic activity was seen” value in data set [1] is recorded as 1 to 500 nM. Further, the half-maximal inhibitory concentration (IC50) in data set [2] came out at 0.7 nM; in the data set with HH (CTCL), 1.3 nM; in the data set with FEPD (ALCL) it was 1.6 nM; in data set [3], 1.9 nM; with SUP-M2 (ALK-ALCL) it was 1.6 nM; in [4] (Homo sapiens, 60 h, read-out: Avg. IC50 across the cancer cell lines, 60 hours, 8 cancer cell lines, b235 with +/- spread), 1.23 nM. Moreover, the IC50 was 0.6 to 1.9 nM in data set [4] (Homo sapiens, 60 h, read-out: IC50 range across the cancer cell lines, 60 hours, 8 cancer cell lines) and 1.23 nM in data set [4] (read-out: Avg. IC50 across the cancer cell lines, 60 hours, 8 cancer cell lines, b235 with +/- spread). For the same compound, the clinical score result in the data set with BALB/c mice (after first 7 days of treatment) was “equivalent clinical score”. Besides, the “dose at which mice reached humane endpoints” value in the data set on BALB/c mice (intraperitoneal (IP)) stood at 8 mg/kg. Moreover, the MTD in [5] (intraperitoneal (IP)) is 5 mg/kg; in [5] (intravenous (IV), highest dose tested 8 mg/kg), greater than 8 mg/kg.
